Assay results reported in ChEMBL document CHEMBL1201862, “PubChem BioAssay data set” (2004).
Several values for one entry are separate records, joined by “and”; a condition that tells them apart may be missing. Equal entries are not always repeated.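 Where inhibition never reached the appropriate level, the endpoint shown equals the highest concentration tested. Otherwise, values were interpolated linearly from a five-concentration, 48-hour dose response in 96-well plates. GI50 marks 50% less growth.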 Activity calls are given as the source filed them. No stated cut-off is given here; in the data, active = GI50 up to about 1.1 µM and inactive = higher.

Tests used:
Experiment in all cases: NCI-60 cell line screen, 48 h
TK-10 = system: TK-10
HCC 2998 = system: HCC 2998
Hs-578T = system: Hs-578T
T47D = system: T47D
PC-3 = system: PC-3
A549 = system: A549
MCF7 = system: MCF7
HOP-92 = system: HOP-92
OVCAR-8 = system: OVCAR-8
786-0 = system: 786-0
DU-145 = system: DU-145
ACHN = system: ACHN
NCI/ADR-RES = system: NCI/ADR-RES
HL-60 = system: HL-60
SNB-78 = system: SNB-78
XF498 = system: XF498
DMS-273 = system: DMS-273
DLD-1 = system: DLD-1
M19-MEL = system: M19-MEL
DMS-114 = system: DMS-114

Measured: GI50

NNc1nc2ccccc2s1
inactive: TK-10 > 100 µM | HCC 2998 > 100 µM | Hs-578T > 100 µM | T47D 55.2 µM | PC-3 > 100 µM | A549 > 100 µM | MCF7 > 100 µM | HOP-92 > 100 µM | OVCAR-8 > 100 µM | 786-0 > 100 µM | DU-145 > 100 µM | ACHN > 100 µM | NCI/ADR-RES > 100 µM | HL-60 > 100 µM

CN1CC2(CCCCC2)C(O)C12C=CCCC2 (centres undefined)
inactive: TK-10 > 100 µM | HCC 2998 > 100 µM | SNB-78 > 100 µM | XF498 > 100 µM | A549 > 100 µM | DMS-273 > 100 µM | OVCAR-8 > 100 µM | DLD-1 > 100 µM | M19-MEL > 100 µM | 786-0 > 100 µM | DMS-114 > 100 µM | HL-60 > 100 µM

C1=Cc2nccc3cc4c(c(c23)N1)OCO4
inactive: TK-10 14.7 µM | HCC 2998 8.95 µM | Hs-578T 3.58 µM | T47D 6.4 µM | PC-3 11.6 µM | A549 5.3 µM | MCF7 2.32 µM | HOP-92 22.3 µM | OVCAR-8 3.93 µM | 786-0 4.03 µM | DU-145 6.15 µM | ACHN 4.52 µM | NCI/ADR-RES 12.2 µM | HL-60 > 100 µM

COc1ccc(/C(Cl)=C(\C=O)c2ccc(Cl)c(Cl)c2)cc1OC
inactive: TK-10 19 µM | SNB-78 4.28 µM | XF498 3.05 µM | DMS-273 6.73 µM | HOP-92 2.69 µM | OVCAR-8 4.02 µM | DLD-1 4.46 µM | M19-MEL 8.11 µM | DMS-114 12.4 µM | ACHN 4.56 µM | HL-60 2.7 µM

C1CCC(OC2CSC2)OC1 (centres undefined)
inactive: TK-10 > 100 µM | HCC 2998 > 100 µM | Hs-578T > 100 µM | T47D > 100 µM | PC-3 > 100 µM | A549 > 100 µM | MCF7 > 100 µM | HOP-92 > 100 µM | OVCAR-8 > 100 µM | DU-145 > 100 µM | ACHN > 100 µM | NCI/ADR-RES > 100 µM

CC1CC(Br)C(=O)O1 (centres undefined)
inactive: TK-10 > 100 µM | HCC 2998 > 100 µM | Hs-578T > 100 µM | T47D > 100 µM | PC-3 > 100 µM | A549 > 100 µM | MCF7 > 100 µM | HOP-92 > 100 µM | OVCAR-8 > 100 µM | DU-145 > 100 µM | ACHN > 100 µM | NCI/ADR-RES > 100 µM | HL-60 > 100 µM

CC1=C(C)Cc2c(O)ccc(O)c2C1
inactive: TK-10 20.7 µM | Hs-578T 17.7 µM | T47D 18.5 µM | PC-3 15.2 µM | A549 18.7 µM | MCF7 19.2 µM | HOP-92 19.7 µM | OVCAR-8 16.1 µM | DU-145 20.1 µM | ACHN 17.4 µM | NCI/ADR-RES 36.5 µM | HL-60 5.36 µM

CN1c2ccccc2NC(CC(=O)O)C2CC=CN21 (centres undefined)
inactive: TK-10 > 100 µM | XF498 > 100 µM | A549 > 100 µM | DMS-273 > 100 µM | HOP-92 > 100 µM | OVCAR-8 > 100 µM | M19-MEL > 100 µM | 786-0 > 100 µM | DMS-114 > 100 µM | ACHN > 100 µM | HL-60 > 100 µM

Cc1cc(-c2ccccc2)nc(Nc2cc3ccccc3[nH]2)n1
inactive: TK-10 > 100 µM | HCC 2998 > 100 µM | SNB-78 > 100 µM | XF498 > 100 µM | A549 > 100 µM | HOP-92 22.2 µM | OVCAR-8 > 100 µM | DLD-1 > 100 µM | M19-MEL > 100 µM | 786-0 > 100 µM | DMS-114 > 100 µM | ACHN > 100 µM | HL-60 > 100 µM

CCc1cc(=O)n(/C(C)=C/c2ccccc2)n1C
inactive: TK-10 > 100 µM | HCC 2998 > 100 µM | Hs-578T > 100 µM | T47D > 100 µM | PC-3 > 100 µM | A549 > 100 µM | MCF7 > 100 µM | HOP-92 > 100 µM | OVCAR-8 > 100 µM | DU-145 > 100 µM | ACHN > 100 µM | NCI/ADR-RES > 100 µM

COc1cc(C(C)O)c[n+](Cc2ccccc2)c1 (centres undefined)
inactive: TK-10 > 100 µM | HCC 2998 > 100 µM | SNB-78 > 100 µM | XF498 > 31.6 µM | A549 > 100 µM | DMS-273 > 100 µM | HOP-92 > 100 µM | OVCAR-8 > 31.6 µM | DLD-1 > 100 µM | M19-MEL > 100 µM | 786-0 > 100 µM | DMS-114 > 100 µM | ACHN > 100 µM | HL-60 > 100 µM

CCOC(=O)C(C)N1C(=O)c2ccccc2S1(=O)=O (centres undefined)
inactive: HCC 2998 > 100 µM | XF498 > 100 µM | A549 > 100 µM | MCF7 > 100 µM | DMS-273 > 100 µM | HOP-92 > 100 µM | OVCAR-8 > 100 µM | DLD-1 > 100 µM | M19-MEL > 100 µM | DMS-114 > 100 µM | NCI/ADR-RES > 100 µM | HL-60 > 100 µM

COC(=O)[C@]12CC[C@H]3CN(C(=O)OCc4ccccc4)[C@H]([C@H]31)[C@H](C(=O)OCC[Si](C)(C)C)N2S(=O)(=O)c1ccc(C)cc1
inactive: TK-10 > 100 µM | HCC 2998 > 100 µM | Hs-578T > 100 µM | T47D 5.32 µM | PC-3 12.1 µM | A549 18.4 µM | MCF7 37.3 µM | HOP-92 3.13 µM | OVCAR-8 > 100 µM | 786-0 > 100 µM | DU-145 > 100 µM | ACHN 54.7 µM | NCI/ADR-RES > 100 µM | HL-60 8.85 µM

COc1cc2c3cc1Oc1c(OC)c(OC)cc4c1C(Cc1ccc(cc1)Oc1cc(ccc1O)CC3N(C)CC2)N(C)CC4 (centres undefined)
inactive: TK-10 12.1 µM and 22.8 µM | Hs-578T 10.8 µM | T47D 11.3 µM | SNB-78 20.9 µM | PC-3 10.4 µM | A549 14.9 µM and 8.99 µM | MCF7 6.44 µM | HOP-92 16.2 µM | DLD-1 11.4 µM | M19-MEL 11.9 µM | DU-145 10.6 µM | DMS-114 11.9 µM | NCI/ADR-RES 19.3 µM

CCCCCCCC/C=C\CCCCCCCCCCCC(=O)O [ERUCIC ACID]
inactive: HCC 2998 44.1 µM | SNB-78 44.4 µM | XF498 1.48 µM | A549 38.5 µM | MCF7 14.9 µM | DMS-273 22.2 µM | HOP-92 38.9 µM | OVCAR-8 37.2 µM | DLD-1 42.4 µM | M19-MEL 26.2 µM | NCI/ADR-RES 86.3 µM | HL-60 19.3 µM
